Patent publication US20240164373A1, “ANTIMICROBIAL PERFUMING CONSUMER PRODUCTS” (Firmenich SA, priority 2021, published 2024)
In brackets after ≈: the same amount, converted by molar mass.

Key:
Type in all cases: cell-based
[1] = test system: Escherichia coli ATCC 25922; experiment: MIC test in 96 well plates (broth dilution, turbidity); conditions: ATCC25922, average of three replicates, MH broth, sample in ethanol, 37° C. overnight, read-out: Minimal inhibitory concentration (ppm) Escherichia coli ATCC 25922
[2] = test system: Corynebacterium tuberculostearicum C1; experiment: as above; conditions: average of three replicates, BHI-TW80 broth, sample in DMSO, read-out: Minimal inhibitory concentration (ppm) Corynebacterium tuberculostearicum C1
Procedure: Bacterial suspension of the Corynebacterium tuberculostearicum C1 strain was prepared as follows: Stock culture (stored at −80° C.) was subcultured onto tryptic soy agar plates with 0.5% Tween 80 (TSA-TW80), and subsequently incubated at 37 °C for 48 h. The primary cultures were subcultured again onto TSA-TW80 to prepare the secondary cultures. One single colony of the secondary culture was then selected and used to inoculate 50 ml brain heart infusion broth with 0.5% Tween 80 (BHI-TW80). The inoculated broth was incubated at 37° C. and 180 rpm overnight. Aliquots (2 mL) of the overnight culture were inoculated into 50 ml of fresh BHI-TW80 broth media, and incubated at 37° C., 160 rpm. When the OD600 nm reached the target value of 4.0, cells were harvested by centrifugation at 5000 rpm for 10 min, and then resuspended in the fresh BHI-TW80 broth media at the same volume before the centrifugation. Aliquots (1 ml) of each cell suspension were diluted in 200 ml of fresh BHI-TW80 broth media as the bacterial solutions for the MIC test.
Sample solutions of test materials and reference material were prepared in ethanol for MIC test for E. coli and S. aureus strains or in DMSO for C. tuberculostearicum and C. acnes strains. In brief, stock solutions of 1% and 20% were prepared in each solvent, and then seven serial dilutions of each stock solution were prepared in each solvent to obtain a total of 16 solutions of the test material or the reference material. Aliquot (10 μl) of each solution was used for MIC test. The tested final concentrations of each material were 29, 44, 66, 99, 148, 222, 333, 500, 590, 900, 1300, 2000, 3000, 4500, 6700, 10000 ppm.
MIC test were performed in 96 well plates. […] Column 1 contained bacterial solution only (the positive growth control), and column 12 contained growth media only (the negative growth control). […]
Minimal inhibitory concentration (MIC) was determined as the lowest concentration where no growth was observed. Average MIC value of the three replicates was calculated against each strain.

[3] = test system: Staphylococcus aureus ATCC 6538; experiment: as above; conditions: ATCC6538, average of three replicates, MH broth, sample in ethanol, 37° C. overnight, read-out: Minimal inhibitory concentration (ppm) Staphylococcus aureus ATCC 6538
[4] = test system: Cutibacterium acnes DSM 1897; experiment: MIC test in 96 well plates (broth dilution, turbidity), anaerobic strain; conditions: DSM1897, average of three replicates, WC broth, sample in DMSO, read-out: Minimal inhibitory concentration (ppm) Cutibacterium acnes DSM 1897
Escherichia coli DSM 787 = experiment: MIC test in 96 well plates (broth dilution, turbidity); conditions: DSM787, average of three replicates, MH broth, sample in ethanol, 37° C. overnight, read-out: Minimal inhibitory concentration (ppm) Escherichia coli DSM 787

Row | Compound | MIC [1] [µg/mL] | MIC [2] [µg/mL] | MIC [3] [µg/mL] | MIC [4] [µg/mL] | MIC (Escherichia coli DSM 787) [µg/mL]
1 | CCC=C(C)C(O)C(C)CC (stereo not drawn) [3,5-dimethyl-5-octen-4-ol] | 3500 (≈ 22400 µM) | 2670 (≈ 17100 µM) | 1530 (≈ 9810 µM) | 1770 (≈ 11300 µM) | 
2 | CC(CCO)CCc1ccccc1 (stereo not drawn) [3-methyl-5-phenyl-1-pentanol] |  | 200 (≈ 1120 µM) | 185 (≈ 1040 µM) | 259 (≈ 1450 µM) | 360 (≈ 2020 µM)
3 | CC(O)CC(C)CCc1ccccc1 (stereo not drawn) [4-methyl-6-phenyl-2-hexanol] | > 10000 | 1300 (≈ 6760 µM) | 173 (≈ 900 µM) | 148 (≈ 770 µM) | 
